15 compounds from patent US10538491B2, “4,5-substituted picolinamide and picolinonitrile metabotropic glutamate receptor 2 negative allosteric modulators” (Vanderbilt University, priority 2015, dated 2020) can be followed below.

The assay addresses rat mGlu2 (Rattus norvegicus (Rat), UniProt P31421). The assay is described as follows: mGlu2 Ca2+ flux assay. It is filed as cell-based. As to conditions: for IC50: Gα15 HEK293 cells stably expressing rat mGlu2, glutamate EC80, >10,000 = no plateau, >30,000 = no measurable activity; for remaining activity at 30 µM: amplitude of response in the presence of 30 μM test compound as percentage of maximal response to glutamate, read-out: rat mGlu2 Glu max. How it is done: Gα15 HEK293 cells stably expressing rat mGlu2 were plated in black-walled, clear-bottomed, poly-D-lysine coated 384-well plates in 20 μL of assay medium (DMEM containing 10% dialyzed FBS, 20 mM HEPES, and 1 mM sodium pyruvate) at a density of 12K cells/well. The cells were grown overnight at 37° C. in the presence of 5% CO2. The next day, medium was removed and the cells incubated with 20 μL of 2.3 μM Fluo-4, AM prepared as a 2.3 mM stock in DMSO and mixed in a 1:1 ratio with 10% (w/v) pluronic acid F-127 and diluted in assay buffer (Hank's balanced salt solution, 20 mM HEPES, and 2.5 mM probenecid) for 45 minutes at 37° C. Dye was removed, 20 μL of assay buffer was added, and the plate was incubated for 5 minutes at room temperature.
Ca^2+ flux was measured using the Functional Drug Screening System (FDSS7000, Hamamatsu, Japan). After establishment of a fluorescence baseline for about 3 seconds, the compounds of the present invention were added to the cells, and the response in cells was measured. 2.3 minutes later an EC20 concentration of the mGlu2 receptor agonist glutamate was added to the cells, and the response of the cells was measured for 1.9 minutes; an EC80 concentration of agonist was added and readings taken for an additional 1.7 minutes. All test compounds were dissolved and diluted to a concentration of 10 mM in 100% DMSO. Compounds were then serially diluted 1:3 in DMSO into 10 point concentration response curves, transferred to daughter plates, and further diluted into assay buffer to a 2× stock. Calcium fluorescence measures were recorded as fold over basal fluorescence; raw data was then normalized to the maximal response to glutamate. Antagonism of the agonist response of the mGlu2 receptor in the present invention was observed as a decrease in response to nearly maximal concentrations of glutamate in the presence of compound compared to the response to glutamate in the absence of compound.
The raw data file containing all time points was used as the data source in the analysis template. This was saved by the FDSS as a tab-delimited text file. Data were normalized using a static ratio function (F/F0) for each measurement of the total 360 values per well divided by each well's initial value. Data were then reduced to peak amplitudes (Max−Initial Min) using a time range that starts approximately 3 seconds prior to the glutamate EC80 addition and continues for approximately 90 seconds. This is sufficient time to capture the peak amplitude of the cellular calcium response. Individual amplitudes were expressed as % ECMax by multiplying each amplitude by 100 and then dividing the product by the mean of the amplitudes derived from the glutamate ECMax-treated wells. IC50 values for test compounds were generated by fitting the normalized values versus the log of the test compound concentration (in mol/L) using a 4 parameter logistic equation where none of the parameters were fixed. Each of the three values collected at each concentration of test compound were weighted evenly.
For NAMs, potency (IC50) and maximum response (% Glu Max), i.e. the amplitude of response in the presence of 30 μM test compound as a percentage of the maximal response to glutamate, are reported. […] Compounds with no measurable activity are designated as “>30,000 nM” since the top concentration of compound tested in the assay is 30 μM.
A general note: A change in cytosolic calcium serves as a functional read-out for many receptors and channels.

Each structure is given as a SMILES string.

rat mGlu2, sequence (P31421 19-872): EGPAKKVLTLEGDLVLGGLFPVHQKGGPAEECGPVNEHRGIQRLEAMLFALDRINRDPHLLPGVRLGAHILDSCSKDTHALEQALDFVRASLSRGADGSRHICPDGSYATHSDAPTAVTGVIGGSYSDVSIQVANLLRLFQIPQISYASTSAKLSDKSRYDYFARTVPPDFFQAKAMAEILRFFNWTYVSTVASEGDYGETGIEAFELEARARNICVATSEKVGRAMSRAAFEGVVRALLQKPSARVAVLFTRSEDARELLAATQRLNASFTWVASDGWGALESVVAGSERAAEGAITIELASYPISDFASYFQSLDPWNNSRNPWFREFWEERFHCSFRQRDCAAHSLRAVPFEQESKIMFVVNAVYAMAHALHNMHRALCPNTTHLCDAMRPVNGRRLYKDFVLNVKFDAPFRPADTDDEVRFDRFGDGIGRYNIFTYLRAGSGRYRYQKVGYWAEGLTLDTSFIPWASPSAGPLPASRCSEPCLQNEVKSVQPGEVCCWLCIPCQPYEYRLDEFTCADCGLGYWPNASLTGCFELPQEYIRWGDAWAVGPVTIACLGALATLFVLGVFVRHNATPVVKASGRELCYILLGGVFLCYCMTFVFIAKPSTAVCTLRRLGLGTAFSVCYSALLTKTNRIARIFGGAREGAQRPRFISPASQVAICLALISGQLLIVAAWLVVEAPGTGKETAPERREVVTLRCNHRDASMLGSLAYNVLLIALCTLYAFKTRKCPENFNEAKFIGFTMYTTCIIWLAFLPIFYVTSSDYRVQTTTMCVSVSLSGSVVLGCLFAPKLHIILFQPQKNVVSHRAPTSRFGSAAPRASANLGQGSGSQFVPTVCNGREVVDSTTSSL

Turning to `COc1ccc(-c2cc(C(N)=O)ncc2OCc2cc(F)cc(F)c2)c(F)c1` [Compound 31, 5-((3,5-difluorobenzyl)oxy)-4-(2-fluoro-4-methoxyphenyl)picolinamide], the IC50 stood at 0.395 µM and the remaining activity at 30 µM worked out at 1.46%. The NAM designation entry (concentration-dependent decrease in the glutamate EC80 response) is “(Partial NAM)”.

`NC(=O)c1cc(-c2ccc(C(F)(F)F)nc2)c(OCc2cc(F)cc(F)c2)cn1` [Compound 32, 5′-((3,5-difluorobenzyl)oxy)-6-(trifluoromethyl)[3,4′-bipyridine]-2′-carboxamide]: the IC50 is over 10 µM and the remaining activity at 30 µM is 35.1%.

As to `NC(=O)c1cc(-c2ccc(F)cc2)c(OCc2ccc(Br)cc2)cn1` [Compound 33, 5-((4-bromobenzyl)oxy)-4-(4-fluorophenyl)picolinamide], the midpoint of inhibition, the IC50, lay at 1.69 µM and the remaining activity at 30 µM was 2.29%.

For `NC(=O)c1cc(-c2ccc(F)cc2)c(OCc2cccc(Br)c2)cn1` [Compound 34, 5-((3-bromobenzyl)oxy)-4-(4-fluorophenyl)picolinamide], 1.59 µM corresponded to half-maximal inhibition (IC50) and the remaining activity at 30 µM came to 10.1%.

Turning to `NC(=O)c1cc(-c2ccc(F)cc2)c(OCc2ccccc2Br)cn1` [Compound 35, 5-((2-bromobenzyl)oxy)-4-(4-fluorophenyl)picolinamide], the IC50 worked out at 1.11 µM and the remaining activity at 30 µM was 1.55%.

With `NC(=O)c1cc(-c2ccc(F)cc2)c(OCc2cc(Br)ccc2F)cn1` [Compound 36, 5-((5-bromo-2-fluorobenzyl)oxy)-4-(4-fluorophenyl)picolinamide], the IC50 worked out at 0.65 µM and the remaining activity at 30 µM worked out at 3.82%.

Turning to `NC(=O)c1cc(-c2ccc(F)cc2)c(OCc2cc(F)cc(Br)c2)cn1` [Compound 37, 5-((3-bromo-5-fluorobenzyl)oxy)-4-(4-fluorophenyl)picolinamide], the IC50 turned out to be 1.47 µM and the remaining activity at 30 µM came out at 3.54%.

Take `NC(=O)c1cc(-c2ccc(F)cc2)c(OCc2cccnc2)cn1` [Compound 38, 4-(4-fluorophenyl)-5-(pyridin-3-ylmethoxy)picolinamide]: the midpoint of inhibition, the IC50, lay at 0.507 ± 0.123 µM and the remaining activity at 30 µM was 5.84 ± 1.16%.

On to `COc1ccc(-c2cc(C(N)=O)ncc2OCc2cccnc2)c(F)c1` [Compound 39, 4-(2-fluoro-4-methoxyphenyl)-5-(pyridin-3-ylmethoxy)picolinamide], for which half-maximal inhibition (IC50) was put at 0.039 µM and the remaining activity at 30 µM was found to be 1.36%.

In turn, `NC(=O)c1cc(-c2ccc(C(F)(F)F)nc2)c(OCc2cccnc2)cn1` [Compound 40, 5′-(pyridin-3-ylmethoxy)-6-(trifluoromethyl)[3,4′-bipyridine]-2′-carboxamide] returned an IC50 of over 30 µM.

Regarding `Cc1ccc(COc2cnc(C(N)=O)cc2-c2ccc(F)cc2)cn1` [Compound 41, 4-(4-fluorophenyl)-5-((6-methylpyridin-3-yl)methoxy)picolinamide], the IC50 was determined as 0.343 µM and the remaining activity at 30 µM worked out at 1.59%.

On to `COc1ccc(COc2cnc(C(N)=O)cc2-c2ccc(F)cc2)cn1` [Compound 42, 4-(4-fluorophenyl)-5-((6-methoxypyridin-3-yl)methoxy)picolinamide], for which the IC50 worked out at 0.266 µM and the remaining activity at 30 µM is 2.2%.

With `NC(=O)c1cc(-c2ccc(F)cc2)c(OCc2ccc(C(F)(F)F)nc2)cn1` [Compound 43, 4-(4-fluorophenyl)-5-((6-(trifluoromethyl)pyridin-3-yl)methoxy)picolinamide], the IC50 worked out at 0.717 µM and the remaining activity at 30 µM came to 0.74%.

`NC(=O)c1cc(-c2ccc(F)cc2)c(OCc2ccncc2)cn1` [Compound 44, 4-(4-fluorophenyl)-5-(pyridin-4-ylmethoxy)picolinamide]: half-maximal inhibition (IC50) was put at 0.239 µM and the remaining activity at 30 µM was determined as 0.42%.

For the compound `Cc1cc(COc2cnc(C(N)=O)cc2-c2ccc(F)cc2)ccn1` [Compound 45, 4-(4-fluorophenyl)-5-((2-methylpyridin-4-yl)methoxy)picolinamide], it took 0.195 µM to reach half-maximal inhibition (IC50) and the remaining activity at 30 µM stood at 1.17%.

A word on the IC50: it is the concentration needed to halve the response being measured.
